Measured values from patent US8039668B2, “Naphthalene-based inhibitors of anti-apoptotic proteins” (Burnham Institute for Medical Research, priority 2008, dated 2011).
Where two headings read alike, the source gives them in different places.

Legend:
BCL-XL [1] = target: T1, BCL-XL (Homo sapiens, UniProt Q07817); test: 1D 1H-NMR binding assay; design: key to 1D-^1H NMR: +++, Very Active; ++, Active; +, Mild; −, Weak; conditions: for 1D ^1H-NMR Binding Assay (BCL-XL): Table 9; for 1D-^1H NMR: Table 3, BCL-XL 25 μM, compound 200 μM
Procedure: By observing the aliphatic region of the spectra, binding could be readily detected due to chemical shift changes in active site methyl groups of Ile, Leu, Thr, Val or Ala (region between −0.8 and 0.3 ppm). All experiments were performed with a 600 MHz spectrometer Bruker Avance 600 equipped with four rf channels and z-axis pulse-field gradients.
Target sequence in this assay (Q07817 whole entry): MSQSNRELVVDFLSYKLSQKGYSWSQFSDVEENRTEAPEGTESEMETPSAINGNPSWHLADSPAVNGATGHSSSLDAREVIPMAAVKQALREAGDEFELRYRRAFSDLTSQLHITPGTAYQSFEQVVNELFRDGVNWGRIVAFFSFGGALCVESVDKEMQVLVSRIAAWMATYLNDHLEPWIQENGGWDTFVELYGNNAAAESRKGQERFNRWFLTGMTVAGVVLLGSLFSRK

H1299 cell line = test: Cell viability, ATP-LITE assay; assay type: cell-based, human; conditions: Homo sapiens
Procedure: (§1) The activity of the compounds against human cancer cell lines (PC3ML, H460, H1299, RS11846) were assessed by using the ATP-LITE assay (PerkinElmer). All cells were seeded in either F12 or RPMI1640 medium with 5 mM L-glutamine supplemented with 5% fetal bovine serum (Mediatech Inc.), penicillin and streptomycin (Omega). For maintenance, cells were cultured in 5% FBS. Cells plated into 96 well plates at varying initial densities depending on doubling time. H460 and H1299 plated at 2000 cells/well, A549 and PC3 at 3000 cells/well, and RS118456S at 10,000 cells/well. Compounds were diluted to final concentrations with 0.1% DMSO. Prior to dispensing compounds onto cells, fresh 5% media was placed into wells. Administration of compounds occurred 24 hours after seeding into the fresh media. Cell viability was evaluated using ATP-LITE reagent (PerkinElmer) after 72 hours of treatment. Data were normalized to the DMSO control-treated cells using Prism version 5.01 (Graphpad Software).

PC3ML cells = test: Cell viability, ATP-LITE assay; assay type: cell-based, human; conditions: Homo sapiens, PC3-ML
Procedure: as §1

[2] = tested on: H460 human lung cell line; test: Cell viability, ATP-LITE assay; assay type: cell-based; conditions: Homo sapiens
Procedure: as §1

RS11846 cell line = test: Cell viability, ATP-LITE assay; assay type: cell-based; conditions: Homo sapiens, read-out: RS11846 EC50 (ATP-LITE assay)
Procedure: as §1

[3] = tested on: human lymphoma RS11846 cell line; test: Apoptosis, Annexin V-FITC and propidium iodide assay; assay type: cell-based; conditions: for EC50: Homo sapiens
Procedure: The apoptotic activity of the compounds against RS11846 cells was assessed by staining with Annexin V- and propidium iodide (PI). Lymphoma cell line, RS11846, was cultured in RPMI 1640 medium (Mediatech Inc., Herndon, Va. 20171) containing 10% fetal bovine serum (Mediatech Inc., Herndon, Va. 20171) and Penicillin/Streptomycin (Mediatech Inc., Herndon, Va. 20171). […] The percentage of viable cells was determined by FITC-Annexin V- and propidium iodide (PI)-labeling, using an Apoptosis Detection kit (BioVision Inc.), and analyzing stained cells by flow cytometry (FACSort; Bectin-Dickinson, Inc.; Mountain View, Calif.). Cells that were annexin-V-negative and PI-negative were considered viable.

BCL-XL [4] = target: T1, BCL-XL; test: Competitive fluorescence polarization assay (FPA), Bak BH3 peptide; assay type: binding; design: 100 nM GST-BCL-XL ΔTM protein; conditions: Table 9
Procedure: For competitive binding assays, 100 nM GST-BCL-XL ΔTM protein was preincubated with the tested compound at varying concentrations in 47.5 μL PBS (pH=7.4) in 96-well black plates at room temperature for 10 min, then 2.5 μL of 100 nM FITC-labeled Bak BH3 peptide was added to produce a final volume of 50 μL. The wild-type and mutant Bak BH3 peptides were included in each assay plate as positive and negative controls, respectively. […] IC50 was determined by fitting the experimental data to a sigmoidal dose-response nonlinear regression model (SigmaPlot 10.0.1, Systat Software, Inc., San Jose, Calif., USA). Data reported are mean of three independent experiments±standard error (SE). […] Fluorescence polarization was measured after 10 min.
Target sequence in this assay (Q07817 1-209 limits assumed): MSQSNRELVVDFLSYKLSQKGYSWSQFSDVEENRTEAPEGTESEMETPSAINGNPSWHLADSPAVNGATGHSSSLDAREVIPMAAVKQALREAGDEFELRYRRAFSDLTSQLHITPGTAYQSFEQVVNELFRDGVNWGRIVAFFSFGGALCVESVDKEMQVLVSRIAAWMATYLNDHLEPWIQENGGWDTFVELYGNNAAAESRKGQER

[5] = tested on: BP3 human B-cell lymphoma cell line; test: Annexin V-FITC and propidium iodide assay; assay type: cell-based; conditions: for EC50: Homo sapiens, B-cell, Table 3, Annexin V-FITC and propidium iodide assay, read-out: EC50 BP3
[6] = NCI-H1299, read-out: H1299 EC50
[7] = read-out: RS11846 EC50 (Annexin V- and propidium iodide assay), Table 9
[8] = NCI-H460, heading: EC50 H460, Table 3, ATP-LITE assay, read-out: EC50 H460
[9] = Table 3, Annexin V-FITC and propidium iodide assay, heading: EC50 RS11846, read-out: EC50 RS11846
[10] = NCI-H1299, Table 9, read-out: H1299 EC50
[11] = NCI-H460, Table 9, read-out: H460 EC50
[12] = Table 9, read-out: RS11846 EC50 (Annexin V- and propidium iodide assay)

SMILES	1D ^1H-NMR Binding Assay (BCL-XL) (BCL-XL [1])	EC50 (H1299 cell line; [10]) [µM]	EC50 (PC3ML cells; Table 9, read-out: PC3ML EC50) [µM]	EC50 [2, 11] [µM]	EC50 (RS11846 cell line; Table 9) [µM]	EC50 [3, 12] [µM]	IC50 (BCL-XL [4]; read-out: FPA IC50 (BCL-XL)) [µM]	other results
Cc1cc2c(C(=O)Cc3cccc(Br)c3)c(O)c(O)cc2c(O)c1-c1c(C)cc2c(C(=O)Cc3cccc(Br)c3)c(O)c(O)cc2c1O [Compound XIII, 1,1′-(1,1′,6,6′,7,7′-hexahydroxy-3,3′-dimethyl-2,2′-binaphthyl-5,5′-diyl)bis(2-(3-bromophenyl)ethanone)]	++							EC50 (H1299 cell line; [6]): 2.6 µM; EC50 (PC3ML cells; read-out: PC3ML EC50, Table 9): 3.1 µM; EC50 ([2]; NCI-H460, read-out: H460 EC50): 2.7 µM; EC50 (RS11846 cell line): 8.4 µM; EC50 [3, 7]: 5.3 µM; IC50 (BCL-XL [4]; FPA IC50 (BCL-XL)): 1.31 µM
Cc1cc2c(C(=O)NCCc3ccc(Cl)cc3)c(O)c(O)cc2c(O)c1-c1c(C)cc2c(C(=O)NCCc3ccc(Cl)cc3)c(O)c(O)cc2c1O [Compound 8t, N^5,N^5′-bis(4-chlorophenethyl)-1,1′,6,6′,7,7′-hexahydroxy-3,3′-dimethyl-2,2′-binaphthyl-5,5′-dicarboxamide]								1D-^1H NMR (BCL-XL [1]): ++; EC50 [2, 8]: 1.3 µM; EC50 [3, 9]: 5.1 µM; EC50 [5]: 0.7 µM
Cc1cc2c(C(=O)C(C)C)c(O)c(O)cc2c(O)c1-c1c(C)cc2c(C(=O)C(C)C)c(O)c(O)cc2c1O [Compound III, 1,1′-(1,1′,6,6′,7,7′-hexahydroxy-3,3′-dimethyl-2,2′-binaphthyl-5,5′-diyl)bis(2-methylpropan-1-one)]	++							EC50 (H1299 cell line; [6]): 4.8 µM; EC50 (PC3ML cells; read-out: PC3ML EC50, Table 9): 3.9 µM; EC50 ([2]; NCI-H460, read-out: H460 EC50): 1.5 µM; EC50 (RS11846 cell line): 15 µM; EC50 [3, 7]: 14.7 µM
Cc1cc2c(C(=O)CC3CCCCC3)c(O)c(O)cc2c(O)c1-c1c(C)cc2c(C(=O)CC3CCCCC3)c(O)c(O)cc2c1O [Compound XV, 1,1′-(1,1′,6,6′,7,7′-hexahydroxy-3,3′-dimethyl-2,2′-binaphthyl-5,5′-diyl)bis(2-cyclohexylethanone)]	+	2.1	1.9	1.8	2	5.2		
Cc1cc2c(C(=O)c3ccc(-c4ccccc4)cc3)c(O)c(O)cc2c(O)c1-c1c(C)cc2c(C(=O)c3ccc(-c4ccccc4)cc3)c(O)c(O)cc2c1O [Compound IX, (1,1′,6,6′,7,7′-hexahydroxy-3,3′-dimethyl-2,2′-binaphthyl-5,5′-diyl)bis(biphenyl-4-ylmethanone)]	+							EC50 (H1299 cell line; [6]): 9.6 µM; EC50 (PC3ML cells; read-out: PC3ML EC50, Table 9): 7.7 µM; EC50 ([2]; NCI-H460, read-out: H460 EC50): 8.2 µM; EC50 (RS11846 cell line): 2.8 µM; EC50 [3, 7]: 25.9 µM
Cc1cc2c(C(=O)CCc3ccc(F)cc3)c(O)c(O)cc2c(O)c1-c1c(C)cc2c(C(=O)CCc3ccc(F)cc3)c(O)c(O)cc2c1O [Compound XVI, 1,1′-(1,1′,6,6′,7,7′-hexahydroxy-3,3′-dimethyl-2,2′-binaphthyl-5,5′-diyl)bis(3-(4-fluorophenyl)propan-1-one)]	++	2.2	2.8	1.5	2.3	3.1	0.14	
Cc1cc2c(C(=O)Cc3ccc(OC(F)(F)F)cc3)c(O)c(O)cc2c(O)c1-c1c(C)cc2c(C(=O)Cc3ccc(OC(F)(F)F)cc3)c(O)c(O)cc2c1O [Compound XIV, 1,1′-(1,1′,6,6′,7,7′-hexahydroxy-3,3′-dimethyl-2,2′-binaphthyl-5,5′-diyl)bis(2-(4-(trifluoromethoxy)phenyl)ethanone)]	++							EC50 (H1299 cell line; [6]): 3.9 µM; EC50 (PC3ML cells; read-out: PC3ML EC50, Table 9): 1.9 µM; EC50 ([2]; NCI-H460, read-out: H460 EC50): 3.3 µM; EC50 (RS11846 cell line): 1.8 µM; EC50 [3, 7]: 6.2 µM; IC50 (BCL-XL [4]; FPA IC50 (BCL-XL)): 1.3 µM
CCCCC(CC)CC(=O)c1c(O)c(O)cc2c(O)c(-c3c(C)cc4c(C(=O)CC(CC)CCCC)c(O)c(O)cc4c3O)c(C)cc12 (centres unmarked) [Compound V, 1,1′-(1,1′,6,6′,7,7′-hexahydroxy-3,3′-dimethyl-2,2′-binaphthyl-5,5′-diyl)bis(3-ethylheptan-1-one)]	+	3	3	1.5	2.8	6.6	1.29	
CN(C)CC[C@H](CSc1ccccc1)Nc1ccc(S(=O)(=O)NC(=O)c2ccc(N3CCN(Cc4ccccc4-c4ccc(Cl)cc4)CC3)cc2)cc1[N+](=O)[O-] [ABT-737, reference compound]								cell activity against BP3 cell lines [5]: no cell activity
Cc1cc2c(C(=O)c3ccccc3)c(O)c(O)cc2c(O)c1-c1c(C)cc2c(C(=O)c3ccccc3)c(O)c(O)cc2c1O [Compound VII, (1,1′,6,6′,7,7′-hexahydroxy-3,3′-dimethyl-2,2′-binaphthyl-5,5′-diyl)bis(phenylmethanone)]	+	4.2	3.6			18.3	2.9	
Cc1cc2c(C(=O)O)c(O)c(O)cc2c(O)c1-c1c(C)cc2c(C(=O)O)c(O)c(O)cc2c1O [Compound 14, 1,1′,6,6′,7,7′-hexahydroxy-3,3′-dimethyl-2,2′-binaphthyl-5,5′-dicarboxylic acid]								1D-^1H NMR (BCL-XL [1]): −; EC50 (H1299 cell line; NCI-H1299, heading: EC50 H1299, Table 3, ATP-LITE assay, read-out: EC50 H1299): > 30 µM; EC50 (PC3ML cells; Table 3, ATP-LITE assay, heading: EC50 PC3ML, read-out: EC50 PC3ML): > 30 µM; EC50 [2, 8]: > 30 µM; EC50 [3, 9]: > 30 µM; induction of apoptosis of the RS11846 cell line ([3]; in words): weak or no apoptosis; EC50 ([5]; heading: EC50 BP3): > 30 µM
Cc1cc2cc(O)c(O)cc2c(O)c1-c1c(C)cc2cc(O)c(O)cc2c1O [Compound II, 3,3′-dimethyl-2,2′-binaphthyl-1,1′,6,6′ 7,7′-hexaol]	+	13.4	12.6	10.1	10	24.7		
Cc1cc2c(C(=O)c3ccc(C(F)(F)F)cc3)c(O)c(O)cc2c(O)c1-c1c(C)cc2c(C(=O)c3ccc(C(F)(F)F)cc3)c(O)c(O)cc2c1O [Compound XI, (1,1′,6,6′,7,7′-hexahydroxy-3,3′-dimethyl-2,2′-binaphthyl-5,5′-diyl)bis((4-(trifluoromethyl)phenyl)methanone)]	+	2	2.9	2.2	2.5	3 to 5.5	0.25	
Cc1cc2c(C(=O)c3ccc(C(C)(C)C)cc3)c(O)c(O)cc2c(O)c1-c1c(C)cc2c(C(=O)c3ccc(C(C)(C)C)cc3)c(O)c(O)cc2c1O [Compound X, (1,1′,6,6′,7,7′-hexahydroxy-3,3′-dimethyl-2,2′-binaphthyl-5,5′-diyl)bis((4-tert-butylphenyl)methanone)]	−	4.8	2.8	3.6	2.3	13.4		
Cc1cc2c(C(=O)CC(C)C)c(O)c(O)cc2c(O)c1-c1c(C)cc2c(C(=O)CC(C)C)c(O)c(O)cc2c1O [Compound IV, 1,1′-(1,1′,6,6′,7,7′-hexahydroxy-3,3′-dimethyl-2,2′-binaphthyl-5,5′-diyl)bis(3-methylbutan-1-one)]	+	3.6	7.5	1.1	10	13.7	1.3	
